# Laboratory results taken from patent US9340577B2, “HLA binding motifs and peptides and their uses” (priority 1992, dated 2016).
# No end group written: not given here.
# Legend:
# Assay in all cases: biochemical
# [1] = biological target: DR4w4 (DRB1*0401) (Homo sapiens, UniProt P01903+P01911, A100K/A169T/F76Y/I96L/K127E/L162R/M171V/N62H/P40V/Q125Y/R42H/S133A/S149N/S66Y/V115G/V209L/W38E); format: binding
# [2] = biological target: DRB1*0405 (Homo sapiens, UniProt P01903+P01911, A100R/A169T/D86S/F76Y/I96L/K127E/L162R/M171V/N62H/P40V/Q125Y/R42H/S133A/S149N/S66Y/V115G/V209L/W38E); format: binding
# [3] = biological target: DRB1*1101 (Homo sapiens, UniProt P01903+P01911, A100R/A169T/A87E/I96F/K41T/L162R/M171V/P40S/Q125H/Q178H/Q39Y/Q99D/R42S/S66Y/T262R/V115G/W38E); settings: Binding affinity DRB1 *1101
# DRB1*1101, sequence (P01903 26-254 limits assumed, other chains not shown): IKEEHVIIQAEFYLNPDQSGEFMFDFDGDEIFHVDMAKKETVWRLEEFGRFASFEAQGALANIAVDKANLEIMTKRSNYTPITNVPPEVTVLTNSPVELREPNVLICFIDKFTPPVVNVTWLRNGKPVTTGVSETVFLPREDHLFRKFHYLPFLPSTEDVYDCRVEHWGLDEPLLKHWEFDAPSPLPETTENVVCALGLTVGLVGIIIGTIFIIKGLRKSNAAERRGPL
# [4] = biological target: DRB1*1302 (Homo sapiens, UniProt P01903+P01911, A100E/A169T/K41T/L162R/M171V/P40S/Q125H/Q178H/Q39Y/Q99D/R42S/S66N/T262R/V115G/W38E/Y61H); format: binding
# DRB1*1302, sequence (P01903 26-254 limits assumed, other chains not shown): as above
# [5] = biological target: DRB1*1501 (Homo sapiens, UniProt P01903+P01911); format: binding
# [6] = biological target: DR1 (DRB1*0101) (Homo sapiens, UniProt P01903+P01911, A100R/D57E/F55L/F60I/F76Y/I96L/L162R/M171V/P40L/Q125E/R42F/V115G/Y59C); format: binding
# [7] = biological target: DRB4*0101 (Homo sapiens, UniProt P01903+P13762, G164S); format: binding
# [8] = biological target: DRB5*0101 (Homo sapiens, UniProt P01903+Q30154); settings: Binding affinity DRB5 *0101
# [9] = biological target: DRB3*0101 (Homo sapiens, UniProt P01903+P79483); format: binding
# [10] = biological target: DR7 (DRB1*0701) (Homo sapiens, UniProt P01903+P01911, A100R/A102G/A103Q/D57E/D86V/E43K/F76Y/K127E/L162R/M171V/P40G/Q125H/Q99D/R33Q/R42Y/R54Q/S133A/S66F/T210M/V115G/Y107V/Y59L/Y89S); format: binding
# [11] = biological target: DRB1*0901 (Homo sapiens, UniProt P01903+P01911, A100R/A103E/D57H/D86V/F55Y/F60I/F76Y/I96F/K127E/L162R/M171V/P40D/Q125H/Q99R/R33Q/R42F/S133A/S66N/T210M/V115G/W38K/Y107V/Y59G/Y89S); format: binding
# [12] = biological target: DRB1*0301 (Homo sapiens, UniProt P01903+P01911, A100K/A102G/A103R/A169T/F55Y/I96L/K41T/L162R/M171V/P40S/Q125H/Q178H/Q39Y/R42S/S66N/T106N/T262R/W38E/Y61H); format: binding
# DRB1*0301, sequence (P01903 26-254 limits assumed, other chains not shown): as above
# [13] = biological target: DRB1*0802 (Homo sapiens, UniProt P01903+P01911, A100R/A103L/A169T/F76Y/H45Y/I96F/K41T/L162R/M171V/P40S/Q125H/Q178H/Q39Y/Q99D/R218S/R42G/S66Y/V115G/W38E); format: binding
Sequence,IC50 [1],IC50 [2],IC50 [3],IC50 [4],IC50 [5],IC50 [6],IC50 [7],IC50 [8],IC50 [9],IC50 [10],IC50 [11],IC50 [12],IC50 [13]
LKGDANILKCLRYRL [Peptide 1601.26],5.59 µM,3.14 µM,5.53 µM,6.9 µM,0.609 µM,17.2 µM,6.22 µM,> 20 µM,3.19 µM,9.02 µM,> 20 µM,0.052 µM,–
NCNSNTTPIVHLKGD [Peptide 1601.08],3.11 µM,> 20 µM,> 20 µM,–,> 20 µM,11.5 µM,2.64 µM,> 20 µM,> 20 µM,–,3.14 µM,> 20 µM,> 20 µM
PTGCLKKHGYTVEVQ [Peptide 1601.23],19.8 µM,> 20 µM,> 20 µM,0.082 µM,–,17.9 µM,7.47 µM,> 20 µM,> 20 µM,2.27 µM,1.74 µM,> 20 µM,> 20 µM
QMMLETLNNTEYKNE [Peptide 1601.22],–,0.063 µM,> 20 µM,14.7 µM,> 20 µM,> 20 µM,0.555 µM,> 20 µM,> 20 µM,> 20 µM,> 20 µM,9.64 µM,> 20 µM
SDEISFAGIVTKLPT [Peptide 1601.45],8.79 µM,2.35 µM,12.2 µM,–,0.791 µM,0.513 µM,–,–,> 20 µM,0.901 µM,1.28 µM,1.66 µM,10.7 µM
SNEVSSPEIIRQHLA [Peptide 1601.06],> 20 µM,> 20 µM,> 20 µM,–,5.36 µM,> 20 µM,0.013 µM,> 20 µM,> 20 µM,8.61 µM,–,4.79 µM,> 20 µM
STSDDTVSATQIVRQ [Peptide 1601.31],0.558 µM,> 20 µM,> 20 µM,> 20 µM,> 20 µM,18.1 µM,–,> 20 µM,> 20 µM,5.21 µM,> 20 µM,3.74 µM,> 20 µM
TYISTSQRDDFLNTV [Peptide 1601.27],16.3 µM,5.2 µM,> 20 µM,–,> 20 µM,> 20 µM,0.48 µM,> 20 µM,6.62 µM,–,13 µM,0.152 µM,> 20 µM
YENDSTDLRDHIDYW [Peptide 1601.01],> 20 µM,> 20 µM,> 20 µM,> 20 µM,> 20 µM,> 20 µM,–,> 20 µM,8.55 µM,> 20 µM,> 20 µM,15.8 µM,> 20 µM
